Source: patent publication US20230167105A1, “BCL-2 PROTEIN INHIBITORS” (Recurium IP Holdings, LLC, priority 2020, published 2023)

System: MOLT-4 cells
Assay: MOLT-4 Cell Proliferation Assay (CellTiter-Glo)
Format: cell-based
Conditions: Homo sapiens, 72 h, read-out: MOLT-4 CTG IC50
Protocol: Cell proliferation was measured using the CellTiter-Glo® Luminescent Cell Viability Assay. The assay involved the addition of a single reagent (CellTiter-Glo® Reagent) directly to cells cultured in serum-supplemented medium. MOLT-4 cells (ATCC, CRL-1582) were cultured according to ATCC recommendations and were seeded at 50,000 cells per well.
Each compound evaluated was prepared as a DMSO stock solution (10 mM). Compounds were tested in duplicate on each plate, with a 10-point serial dilution curve (1:3 dilution). The highest compound concentration was 10 μM (final), with a 0.1% final DMSO concentration. Plates were then incubated at 37° C., 5% CO2 for 72 h, cell plates were equilibrated at rt for approximately 30 mins. An equi-volume amount of CellTiter-Glo® Reagent (100 μL) was added to each well. Plates were mixed for 2 mins on an orbital shaker to induce cell lysis and then incubated at rt for 10 mins to stabilize the luminescent signal. Luminescence was recorded using a Envision plate reader according to CellTiter-Glo protocol. IC50 of each compound was calculated using GraphPad Prism by nonlinear regression analysis.

| IC50 | SMILES |
| --- | --- |
| 50 to 150 nM | CN(CCCCCCNc1cccc2c1C(=O)N(C1CCC(=O)NC1=O)C2=O)CC[C@H](CSc1ccccc1)Nc1ccc(S(=O)(=O)NC(=O)c2ccc(N3CCN(CC4=C(C56CC(C(F)F)(C5)C6)CC(C)(C)CC4)CC3)cc2)cc1S(=O)(=O)C(F)(F)F (stereo partly drawn) [Example 21, 4-(4-((2-(3-(difluoromethyl)bicyclo [1.1.1]pentan-1-yl)-4,4-dimethylcyclohex-1-en-1-yl)methyl)piperazin-1-yl)-N-((4-(((2R)-4-((6-((2-(2,6-dioxopiperidin-3-yl)-1,3-dioxoisoindolin-4-yl)amino)hexyl)(methyl)amino)-1-(phenylthio)butan-2-yl)amino)-3-((trifluoromethyl)sulfonyl)phenyl)sulfonyl)benzamide] |
| ≥ 150 nM | Cc1ncsc1-c1ccc([C@H](C)NC(=O)[C@@H]2C[C@@H](O)CN2C(=O)[C@@H](NC(=O)CCCCCN2CCN(CC[C@H](CSc3ccccc3)Nc3ccc(S(=O)(=O)NC(=O)c4ccc(N5CCN(CC6=C(C78CC(C)(C7)C8)CC(C)(C)CC6)CC5)cc4)cc3S(=O)(=O)C(F)(F)F)CC2)C(C)(C)C)cc1 [Example 26, (2S,4R)-1-((S)-2-(6-(4-((R)-3-((4-(N-(4-(4-((4,4-dimethyl-2-(3-methylbicyclo[1.1.1]pentan-1-yl)cyclohex-1-en-1-yl)methyl)piperazin-1-yl)benzoyl)sulfamoyl)-2-((trifluoromethyl)sulfonyl)phenyl)amino)-4-(phenylthio)butyl)piperazin-1-yl)hexanamido)-3,3-dimethylbutanoyl)-4-hydroxy-N—((S)-1-(4-(4-methylthiazol-5-yl)phenyl)ethyl)pyrrolidine-2-carboxamide] |
| 50 to 150 nM | CCC12CC(C3=C(CN4CCN(c5ccc(C(=O)NS(=O)(=O)c6ccc(N[C@H](CCN7CCN(C(=O)CCCCCC(=O)N[C@H](C(=O)N8C[C@H](O)C[C@H]8C(=O)N[C@@H](C)c8ccc(-c9scnc9C)cc8)C(C)(C)C)CC7)CSc7ccccc7)c(S(=O)(=O)C(F)(F)F)c6)cc5)CC4)CCC(C)(C)C3)(C1)C2 [Example 14, (2S,4R)-1-((S)-2-(7-(4-((R)-3-((4-(N-(4-(4-((2-(3-ethylbicyclo[1.1.1]pentan-1-yl)-4,4-dimethylcyclohex-1-en-1-yl)methyl)piperazin-1-yl)benzoyl)sulfamoyl)-2-((trifluoromethyl)sulfonyl)phenyl)amino)-4-(phenylthio)butyl)piperazin-1-yl)-7-oxoheptanamido)-3,3-dimethylbutanoyl)-4-hydroxy-N—((S)-1-(4-(4-methylthiazol-5-yl)phenyl)ethyl)pyrrolidine-2-carboxamide] |
| ≤ 50 nM | CC1(C)CCC(CN2CCN(c3ccc(C(=O)NS(=O)(=O)c4ccc(N[C@H](CCN5CCN(CCCCNc6ccc7c(c6)C(=O)N(C6CCC(=O)NC6=O)C7=O)CC5)CSc5ccccc5)c(S(=O)(=O)C(F)(F)F)c4)cc3)CC2)=C(C23CC(C(F)F)(C2)C3)C1 (stereo partly drawn) [Example 13, 4-[4-[[2-[3-(difluoromethyl)-1-bicyclo[1.1.1]pentanyl]-4,4-dimethyl-cyclohexen-1-yl]methyl]piperazin-1-yl]-N-[4-[[(1R)-3-[4-[4-[[2-(2,6-dioxo-3-piperidyl)-1,3-dioxo-isoindolin-5-yl]amino]butyl]piperazin-1-yl]-1-(phenylsulfanylmethyl)propyl]amino]-3-(trifluoromethylsulfonyl)phenyl]sulfonyl-benzamide] |
| ≥ 150 nM | CC1(C)CCC(CN2CCN(c3ccc(C(=O)NS(=O)(=O)c4ccc(N[C@H](CCN5CCN(CCCCCCNc6cccc7c6C(=O)N(C6CCC(=O)NC6=O)C7=O)CC5)CSc5ccccc5)c(S(=O)(=O)C(F)(F)F)c4)cc3)CC2)=C(C23CC(C(F)F)(C2)C3)C1 (stereo partly drawn) [Example 11, 4-[4-[[2-[3-(difluoromethyl)-1-bicyclo[1.1.1]pentanyl]-4,4-dimethyl-cyclohexen-1-yl]methyl]piperazin-1-yl]-N-[4-[[(1R)-3-[4-[6-[[2-(2,6-dioxo-3-piperidyl)-1,3-dioxo-isoindolin-4-yl]amino]hexyl]piperazin-1-yl]-1-(phenylsulfanylmethyl)propyl]amino]-3-(trifluoromethylsulfonyl)phenyl]sulfonyl-benzamide] |

Second part, the molecule before the results:

| SMILES | IC50 |
| --- | --- |
| CC1(C)CCC(CN2CCN(c3ccc(C(=O)NS(=O)(=O)c4ccc(N[C@H](CCN5CCN(CCCCCOc6cccc7c6C(=O)N(C6CCC(=O)NC6=O)C7=O)CC5)CSc5ccccc5)c(S(=O)(=O)C(F)(F)F)c4)cc3)CC2)=C(C23CC(C(F)F)(C2)C3)C1 (stereo partly drawn) [Example 3, 4-(4-((2-(3-(difluoromethyl)bicyclo [1.1.1]pentan-1-yl)-4,4-dimethylcyclohex-1-en-1-yl)methyl)piperazin-1-yl)-N-((4-(((2R)-4-(4-(5-((2-(2,6-dioxopiperidin-3-yl)-1,3-dioxoisoindolin-4-yl)oxy)pentyl)piperazin-1-yl)-1-(phenylthio)butan-2-yl)amino)-3-((trifluoromethyl)sulfonyl)phenyl)sulfonyl)benzamide] | ≤ 50 nM |
| CC1(C)CCC(CN2CCN(c3ccc(C(=O)NS(=O)(=O)c4ccc(N[C@H](CCN5CCN(CCCCCNc6ccc7c(c6)C(=O)N(C6CCC(=O)NC6=O)C7=O)CC5)CSc5ccccc5)c(S(=O)(=O)C(F)(F)F)c4)cc3)CC2)=C(C23CC(C(F)F)(C2)C3)C1 (stereo partly drawn) [Example 4, 4-(4-((2-(3-(difluoromethyl)bicyclo[1.1.1]pentan-1-yl)-4,4-dimethylcyclohex-1-en-1-yl)methyl)piperazin-1-yl)-N-((4-(((2R)-4-(4-(5-((2-(2,6-dioxopiperidin-3-yl)-1,3-dioxoisoindolin-5-yl)amino)pentyl)piperazin-1-yl)-1-(phenylthio)butan-2-yl)amino)-3-((trifluoromethyl)sulfonyl)phenyl)sulfonyl)benzamide] | 50 to 150 nM |
| CC1(C)CCC(CN2CCN(c3ccc(C(=O)NS(=O)(=O)c4ccc(N[C@H](CCN5CCN(CCCNc6cccc7c6C(=O)N(C6CCC(=O)NC6=O)C7=O)CC5)CSc5ccccc5)c(S(=O)(=O)C(F)(F)F)c4)cc3)CC2)=C(C23CC(C(F)F)(C2)C3)C1 (stereo partly drawn) [Example 5, 4-[4-[[2-[3-(difluoromethyl)-1-bicyclo [1.1.1]pentanyl]-4,4-dimethyl-cyclohexen-1-yl]methyl]piperazin-1-yl]-N-[4-[[(1R)-3-[4-[3-[[2-(2,6-dioxo-3-piperidyl)-1,3-dioxo-isoindolin-4-yl]amino]propyl]piperazin-1-yl]-1-(phenylsulfanylmethyl)propyl]amino]-3-(trifluoromethylsulfonyl)phenyl]sulfonyl-benzamide] | ≤ 50 nM |
| CC1(C)CCC(CN2CCN(c3ccc(C(=O)NS(=O)(=O)c4ccc(N[C@H](CCN5CCN(CCCCCNc6cccc7c6C(=O)N(C6CCC(=O)NC6=O)C7=O)CC5)CSc5ccccc5)c(S(=O)(=O)C(F)(F)F)c4)cc3)CC2)=C(C23CC(C)(C2)C3)C1 (stereo partly drawn) [Example 7, 4-(4-((4,4-dimethyl-2-(3-methylbicyclo[1.1.1]pentan-1-yl)cyclohex-1-en-1-yl)methyl)piperazin-1-yl)-N-((4-(((2R)-4-(4-(5-((2-(2,6-dioxopiperidin-3-yl)-1,3-dioxoisoindolin-4-yl)amino)pentyl)piperazin-1-yl)-1-(phenylthio)butan-2-yl)amino)-3-((trifluoromethyl)sulfonyl)phenyl)sulfonyl)benzamide] | 50 to 150 nM |
| Cc1ncsc1-c1ccc([C@H](C)NC(=O)[C@@H]2C[C@@H](O)CN2C(=O)[C@@H](NC(=O)CCCCC(=O)N2CCN(CC[C@H](CSc3ccccc3)Nc3ccc(S(=O)(=O)NC(=O)c4ccc(N5CCN(CC6=C(C78CC(C(F)F)(C7)C8)CC(C)(C)CC6)CC5)cc4)cc3S(=O)(=O)C(F)(F)F)CC2)C(C)(C)C)cc1 [Example 1, (2S,4R)-1-((S)-2-(6-(4-((R)-3-((4-(N-(4-(4-((2-(3-(difluoromethyl)bicyclo[1.1.1]pentan-1-yl)-4,4-dimethylcyclohex-1-en-1-yl)methyl)piperazin-1-yl)benzoyl)sulfamoyl)-2-((trifluoromethyl)sulfonyl)phenyl)amino)-4-(phenylthio)butyl)piperazin-1-yl)-6-oxohexanamido)-3,3-dimethylbutanoyl)-4-hydroxy-N—((S)-1-(4-(4-methylthiazol-5-yl)phenyl)ethyl)pyrrolidine-2-carboxamide] | ≥ 150 nM |
